{"source": "patent US10689462B2", "about": "“Therapeutic and imaging compositions and uses thereof” (priority 2013, dated 2020)", "origin": "cited, not measured here", "key": {"[1]": {"conditions": "within 24 h"}, "[2]": {"test_system": "npc1^−/− mice", "conditions": "subcutaneous injection, 4.0 mg/kg of body weight"}, "[3]": {"conditions": "room temperature"}}}
{"substance": "hydroxypropyl-β-cyclodextrin [HP-β-CD]", "values": [{"measurement": "Fraction cleared from the bloodstream", "setting": "[1]", "result": "> 90", "unit": "%"}, {"measurement": "Effect on survival, hepatopathology and neuropathology", "setting": "[2]", "result": "improvement in their survival, hepatopathology, and neuropathology"}, {"measurement": "Solubility in water", "setting": "[3]", "result": 0.65, "unit": "g/mL"}]}
